Test results as given in the OPERA property sets (Mansouri et al. 2018).

| Structure (SMILES) | logP |
| --- | --- |
| COC(=O)C1(S(=O)(=O)c2ccc(Cl)cc2)CCC1 | 2.28 |
| COC(=O)C1(S(=O)(=O)c2ccc([N+](=O)[O-])cc2)CC1 | 1.33 |
| CC(C)(C)OC(=O)C1(S(=O)(=O)c2ccc(Cl)cc2)CC1 | 2.68 |
| Cc1ccc(S(=O)(=O)C2(C(=O)OC(C)C)CC2)cc1 | 2.52 |
| COC(=O)C1(S(=O)(=O)c2ccccc2)CCCC1 | 1.98 |
| Cc1ccc(S(=O)(=O)C2(C(=O)OC(C)C)CCC2)cc1 | 2.78 |
| CC(C)OC(=O)C1(S(=O)(=O)c2ccc([N+](=O)[O-])cc2)CCCCCC1 | 3.41 |
| COC(=O)C1(S(=O)(=O)c2ccc(Br)cc2)CCCC1 | 2.73 |
| CCOC(=O)C1(S(=O)(=O)c2ccc(C)cc2)CCC1 | 2.31 |
| CC(C)OC(=O)C1(S(=O)(=O)c2ccc([N+](=O)[O-])cc2)CCCCC1 | 2.84 |
| CC(C)OC(=O)C1(S(=O)(=O)c2ccc(Cl)cc2)CCCC1 | 3.16 |
| COC(=O)C1(S(=O)(=O)c2ccccc2)CC1 | 1.43 |
| COC(=O)C1(S(=O)(=O)c2ccc(Br)cc2)CC1 | 2.32 |
| COC(=O)C1(S(=O)(=O)c2ccc(Cl)cc2)CC1 | 2.03 |
| COC(=O)C1(S(=O)(=O)c2ccc(Br)cc2)CCC1 | 2.45 |
| CC(C)OC(=O)C1(S(=O)(=O)c2ccc([N+](=O)[O-])cc2)CC1 | 2.05 |
| COC(=O)C1(S(=O)(=O)c2ccc(C)cc2)CC1 | 1.77 |
| CCOC(=O)C1(S(=O)(=O)c2ccc(C)cc2)CC1 | 2.23 |
| COC(=O)C1(S(=O)(=O)c2ccccc2)CCCCC1 | 2.3 |
| CC(C)OC(=O)C1(S(=O)(=O)c2ccc([N+](=O)[O-])cc2)CCC1 | 2.36 |
| CC(C)OC(=O)C1(S(=O)(=O)c2ccc(Cl)cc2)CC1 | 2.64 |
| COC(=O)C1(S(=O)(=O)c2ccccc2)CCC1 | 1.63 |
| COC(=O)C1(S(=O)(=O)c2ccc(Br)cc2)CCCCC1 | 2.94 |
